# Reference: patent US9765060B2 (Gilead Sciences, Inc., priority 2014, dated 2017)
# Molecular target: PI3K isoform δ (Homo sapiens (Human), UniProt O00329)
# Assay: TR-FRET assay of enzymatic activity of class I PI3K isoforms
# Conditions: not given
# Chain of PI3K isoform δ (O00329 whole entry, canonical isoform): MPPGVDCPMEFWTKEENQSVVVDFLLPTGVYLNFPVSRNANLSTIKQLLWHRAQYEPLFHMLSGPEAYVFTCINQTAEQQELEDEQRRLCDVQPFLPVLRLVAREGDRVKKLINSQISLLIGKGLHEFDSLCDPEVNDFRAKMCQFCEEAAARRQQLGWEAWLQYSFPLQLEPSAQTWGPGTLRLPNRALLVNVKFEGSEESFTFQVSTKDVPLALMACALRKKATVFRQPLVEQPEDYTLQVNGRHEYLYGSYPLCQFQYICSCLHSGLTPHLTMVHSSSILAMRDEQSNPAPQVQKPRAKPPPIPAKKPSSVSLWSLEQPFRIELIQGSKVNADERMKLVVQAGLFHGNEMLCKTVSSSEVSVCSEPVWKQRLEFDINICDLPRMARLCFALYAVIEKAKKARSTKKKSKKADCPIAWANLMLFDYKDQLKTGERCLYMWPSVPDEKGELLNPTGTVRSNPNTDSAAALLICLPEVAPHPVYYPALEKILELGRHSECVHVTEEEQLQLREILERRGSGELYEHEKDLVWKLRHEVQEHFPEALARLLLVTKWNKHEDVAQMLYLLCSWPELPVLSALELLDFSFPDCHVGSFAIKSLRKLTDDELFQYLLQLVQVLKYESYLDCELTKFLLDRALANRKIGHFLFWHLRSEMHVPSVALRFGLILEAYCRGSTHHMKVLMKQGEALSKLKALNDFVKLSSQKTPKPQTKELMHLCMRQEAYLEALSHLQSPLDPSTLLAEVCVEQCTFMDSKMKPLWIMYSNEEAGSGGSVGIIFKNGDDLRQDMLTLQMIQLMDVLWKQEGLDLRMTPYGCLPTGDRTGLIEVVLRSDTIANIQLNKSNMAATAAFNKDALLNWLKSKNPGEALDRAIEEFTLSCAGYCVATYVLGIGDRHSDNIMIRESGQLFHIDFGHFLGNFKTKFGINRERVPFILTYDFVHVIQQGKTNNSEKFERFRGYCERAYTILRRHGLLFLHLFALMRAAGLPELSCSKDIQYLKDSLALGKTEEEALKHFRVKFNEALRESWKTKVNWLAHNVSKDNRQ
# Chain of PI3K isoform δ (P27986 whole entry partner, canonical isoform): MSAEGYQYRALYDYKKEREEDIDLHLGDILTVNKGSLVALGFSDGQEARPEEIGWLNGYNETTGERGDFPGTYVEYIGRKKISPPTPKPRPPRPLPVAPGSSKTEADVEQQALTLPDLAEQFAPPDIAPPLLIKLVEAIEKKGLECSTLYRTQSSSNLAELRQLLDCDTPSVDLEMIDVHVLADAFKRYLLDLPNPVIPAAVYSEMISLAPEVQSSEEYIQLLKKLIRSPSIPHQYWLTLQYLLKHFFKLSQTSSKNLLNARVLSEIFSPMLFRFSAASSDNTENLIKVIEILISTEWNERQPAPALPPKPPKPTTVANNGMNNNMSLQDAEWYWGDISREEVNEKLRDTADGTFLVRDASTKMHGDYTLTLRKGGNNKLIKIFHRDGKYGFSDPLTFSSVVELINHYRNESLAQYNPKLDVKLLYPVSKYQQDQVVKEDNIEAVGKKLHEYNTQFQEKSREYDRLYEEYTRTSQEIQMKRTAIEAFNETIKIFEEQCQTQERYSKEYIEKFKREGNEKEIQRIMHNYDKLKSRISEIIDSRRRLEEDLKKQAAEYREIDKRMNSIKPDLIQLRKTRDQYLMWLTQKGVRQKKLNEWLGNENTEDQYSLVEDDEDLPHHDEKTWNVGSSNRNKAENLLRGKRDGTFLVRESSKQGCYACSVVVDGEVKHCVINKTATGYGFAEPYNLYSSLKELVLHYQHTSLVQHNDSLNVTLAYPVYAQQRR
row,IC50 [nM],Structure (SMILES)
1,9,"CO[C@H]1C[C@@H](c2nc3cccc(Cl)c3c(=O)n2-c2cc(F)cc(F)c2)N(c2nc(N)nc(N)c2C#N)C1 [Compound 19, 2,4-diamino-6-((2S)-2-(5-chloro-3-(3,5-difluorophenyl)-4-oxo-3,4-dihydroquinazolin-2-yl)-4-methoxypyrrolidin-1-yl)pyrimidine-5-carbonitrile]"

# Same assay, conditions: IC50 (nM) for PI3K isoform δ (Table 3), TR-FRET; 2× Km ATP, 2 μM PIP2; incubated for 30 minutes at 25° C.
row,IC50 [nM],Structure (SMILES)
1,57,C[C@H](Nc1nc(N)nc(N)c1C#N)c1nc2cccc(OCCN(C)C)c2c(=O)n1-c1ccccc1 [Compound 27]

# Same assay, conditions: read-out: IC50 (nM) for PI3K isoform δ (Table 2); TR-FRET; 2× Km ATP, 2 μM PIP2; incubated for 30 minutes at 25° C.
row,IC50 [nM],Structure (SMILES)
1,2,"N#Cc1c(N)nc(N)nc1N[C@H](c1nc2ccc(F)c(C#N)c2c(=O)n1-c1ccccc1)C1CC1 [Compound 8a, (S)-2-(cyclopropyl((2,6-diamino-5-cyanopyrimidin-4-yl)amino)methyl)-6-fluoro-4-oxo-3-phenyl-3,4-dihydroquinazoline-5-carbonitrile]"
2,61,"CN(C)C(=O)C[C@H](Nc1nc(N)nc(N)c1C#N)c1nc2cccc(Cl)c2c(=O)n1-c1cc(F)cc(F)c1 [Compound 9a, (S)-3-(5-chloro-3-(3,5-difluorophenyl)-4-oxo-3,4-dihydroquinazolin-2-yl)-3-((2,6-diamino-5-cyanopyrimidin-4-yl)amino)-N,N-dimethylpropanamide]"
3,2,"CN(C)C(=O)C[C@H](Nc1nc(N)nc(N)c1C#N)c1nc2cccc(Cl)c2c(=O)n1-c1ccccc1 [Compound 10a, (S)-3-(5-chloro-4-oxo-3-phenyl-3,4-dihydroquinazolin-2-yl)-3-((2,6-diamino-5-cyanopyrimidin-4-yl)amino)-N,N-dimethylpropanamide]"
4,14,"Cc1cccc2nc([C@@H](Nc3nc(N)nc(N)c3C#N)C3CC3)n(-c3cc(F)cc(C#N)c3)c(=O)c12 [Compound 11a, (S)-2,4-diamino-6-(((3-(3-cyano-5-fluorophenyl)-5-methyl-4-oxo-3,4-dihydroquinazolin-2-yl)(cyclopropyl)methyl)amino)pyrimidine-5-carbonitrile]"
5,1,"Cc1cccc2nc([C@@H](Nc3nc(N)nc(N)c3C#N)C3CC3)n(-c3cc(F)cc(F)c3)c(=O)c12 [Compound 12a, (S)-2,4-diamino-6-((cyclopropyl(3-(3,5-difluorophenyl)-5-methyl-4-oxo-3,4-dihydroquinazolin-2-yl)methyl)amino)pyrimidine-5-carbonitrile]"
6,1,"N#Cc1c(N)nc(N)nc1N[C@H](c1nc2cccc(Cl)c2c(=O)n1-c1cc(F)cc(F)c1)C1CC1 [Compound 13a, (S)-2,4-diamino-6-(((5-chloro-3-(3,5-difluorophenyl)-4-oxo-3,4-dihydroquinazolin-2-yl)(cyclopropyl)methyl)amino)pyrimidine-5-carbonitrile]"
7,19,"N#Cc1c(N)nc(N)nc1N[C@H](c1nc2cccc(F)c2c(=O)n1-c1cc(F)cc(F)c1)C1CC1 [Compound 14a, (S)-2,4-diamino-6-((cyclopropyl(3-(3,5-difluorophenyl)-5-fluoro-4-oxo-3,4-dihydroquinazolin-2-yl)methyl)amino)pyrimidine-5-carbonitrile]"
8,4,"N#Cc1c(N)nc(N)nc1N[C@H](c1nc2ccc(F)cc2c(=O)n1-c1cccc(F)c1)C1CC1 [Compound 16a, (S)-2,4-diamino-6-((cyclopropyl(6-fluoro-3-(3-fluorophenyl)-4-oxo-3,4-dihydroquinazolin-2-yl)methyl)amino)pyrimidine-5-carbonitrile]"
9,6,"CC(=O)c1c(N)nc(N)nc1N[C@@H](C)c1nc2cccc(Cl)c2c(=O)n1-c1cc(F)cc(F)c1 [Compound 18a, (S)-2 (1-((5-acetyl-2,6-diaminopyrimidin-4-yl)amino)ethyl)-5-chloro-3-(3,5-difluorophenyl)quinazolin-4(3H)-one]"

# Same assay, conditions: read-out: IC50 (nM) for PI3K isoform δ (Table 3); TR-FRET; 2× Km ATP, 2 μM PIP2; incubated for 30 minutes at 25° C.
row,IC50 [nM],Structure (SMILES)
1,30,"Cc1nc(N)c(Br)c(N[C@@H](C)c2nc3cccc(Cl)c3c(=O)n2-c2cc(F)cc(F)c2)n1 [Compound 21, (S)-2-(1-((6-amino-5-bromo-2-methylpyrimidin-4-yl)amino)ethyl)-5-chloro-3-(3,5-difluorophenyl)quinazolin-4(3H)-one]"
2,22,"C[C@H](Nc1nc(N)nc(N)c1C#N)c1nc2cccc(OCCN3CCOCC3)c2c(=O)n1-c1ccccc1 [Compound 22, (S)-2,4-diamino-6-((1-(5-(2-morpholinoethoxy)-4-oxo-3-phenyl-3,4-dihydroquinazolin-2-yl)ethyl)amino)pyrimidine-5-carbonitrile]"
3,10,"C[C@H](Nc1nc(N)nc(N)c1C#N)c1nc2cccc(OCCN3CCCCCC3)c2c(=O)n1-c1ccccc1 [Compound 23, (S)-2,4-diamino-6-((1-(5-(2-(azepan-1-yl)ethoxy)-4-oxo-3-phenyl-3,4-dihydroquinazolin-2-yl)ethyl)amino)pyrimidine-5-carbonitrile]"
4,10,"C[C@H](Nc1nc(N)nc(N)c1C#N)c1nc2cccc(OCCN3CCCC3)c2c(=O)n1-c1ccccc1 [Compound 24, (S)-2,4-diamino-6-((1-(4-oxo-3-phenyl-5-(2-(pyrrolidin-1-yl)ethoxy)-3,4-dihydroquinazolin-2-yl)ethyl)amino)pyrimidine-5-carbonitrile]"
5,36,"CC(C)OC(=O)COc1cccc2nc([C@H](C)Nc3nc(N)nc(N)c3C#N)n(-c3ccccc3)c(=O)c12 [Compound 25, (S)-isopropyl 2-((2-(1-((2,6-diamino-5-cyanopyrimidin-4-yl)amino)ethyl)-4-oxo-3-phenyl-3,4-dihydroquinazolin-5-yl)oxy)acetate]"
6,21,C[C@H](Nc1nc(N)nc(N)c1C#N)c1nc2cccc(OCCN3CCCC3=O)c2c(=O)n1-c1ccccc1 [Compound 26]
7,2,"C[C@H](Nc1nc(N)nc(N)c1C#N)c1nc2cccc(OCC(=O)N3CCCCC3)c2c(=O)n1-c1ccccc1 [Compound 28, (S)-2,4-diamino-6-((1-(4-oxo-5-(2-oxo-2-(piperidin-1-yl)ethoxy)-3-phenyl-3,4-dihydroquinazolin-2-yl)ethyl)amino)pyrimidine-5-carbonitrile]"
8,220,"C[C@H](Nc1nc(N)nc(N)c1C#N)c1nc2cccc(OCC(C)(CO)CO)c2c(=O)n1-c1ccccc1 [Compound 29, (S)-2,4-diamino-6-((1-(5-(3-hydroxy-2-(hydroxymethyl)-2-methylpropoxy)-4-oxo-3-phenyl-3,4-dihydroquinazolin-2-yl)ethyl)amino)pyrimidine-5-carbonitrile]"
9,6,"C[C@H](Nc1nc(N)nc(N)c1C#N)c1nc2cccc(OCCN3CCCCC3)c2c(=O)n1-c1ccccc1 [Compound 30, (S)-2,4-diamino-6-((1-(4-oxo-3-phenyl-5-(2-(piperidin-1-yl)ethoxy)-3,4-dihydroquinazolin-2-yl)ethyl)amino)pyrimidine-5-carbonitrile]"
10,4,"C[C@H](Nc1nc(N)nc(N)c1C#N)c1nc2cccc(OCCN3CCN(c4ccccc4)CC3)c2c(=O)n1-c1ccccc1 [Compound 31, (S)-2,4-diamino-6-((1-(4-oxo-3-phenyl-5-(2-(4-phenylpiperazin-1-yl)ethoxy)-3,4-dihydroquinazolin-2-yl)ethyl)amino)pyrimidine-5-carbonitrile]"
11,85,"Cc1nccn1CCOc1cccc2nc([C@H](C)Nc3nc(N)nc(N)c3C#N)n(-c3ccccc3)c(=O)c12 [Compound 32, (S)-2,4-diamino-6-((1-(5-(2-(2-methyl-1H-imidazol-1-yl)ethoxy)-4-oxo-3-phenyl-3,4-dihydroquinazolin-2-yl)ethyl)amino)pyrimidine-5-carbonitrile]"
12,24,"C[C@H](Nc1nc(N)nc(N)c1C#N)c1nc2cccc(OCCC3CCCN3C)c2c(=O)n1-c1ccccc1 (stereo partly drawn) [Compound 33, 2,4-diamino-6-(((1S)-1-(5-(2-(1-methylpyrrolidin-2-yl)ethoxy)-4-oxo-3-phenyl-3,4-dihydroquinazolin-2-yl)ethyl)amino)pyrimidine-5-carbonitrile]"
13,46,"C[C@H](Nc1nc(N)nc(N)c1C#N)c1nc2cccc(OCC3(C)COC3)c2c(=O)n1-c1ccccc1 [Compound 34, (S)-2,4-diamino-6-((1-(5-((3-methyloxetan-3-yl)methoxy)-4-oxo-3-phenyl-3,4-dihydroquinazolin-2-yl)ethyl)amino)pyrimidine-5-carbonitrile]"
14,7,"C[C@H](Nc1nc(N)nc(N)c1C#N)c1nc2cccc(OCC(=O)N3CCOCC3)c2c(=O)n1-c1ccccc1 [Compound 35, (S)-2,4-diamino-6-((1-(5-(2-morpholino-2-oxoethoxy)-4-oxo-3-phenyl-3,4-dihydroquinazolin-2-yl)ethyl)amino)pyrimidine-5-carbonitrile]"
15,2,"CC1CCN(C(=O)COc2cccc3nc([C@H](C)Nc4nc(N)nc(N)c4C#N)n(-c4ccccc4)c(=O)c23)CC1 [Compound 36, (S)-2,4-diamino-6-((1-(5-(2-(4-methylpiperidin-1-yl)-2-oxoethoxy)-4-oxo-3-phenyl-3,4-dihydroquinazolin-2-yl)ethyl)amino)pyrimidine-5-carbonitrile]"
16,0.5,"C[C@H](Nc1nc(N)nc(N)c1C#N)c1nc2c(F)ccc(CCC(N)=O)c2c(=O)n1-c1ccccc1 [Compound 38, (S)-3-(2-(1-((2,6-diamino-5-cyanopyrimidin-4-yl)amino)ethyl)-8-fluoro-4-oxo-3-phenyl-3,4-dihydroquinazoline-5-yl)propanamide]"
17,2,"C[C@H](Nc1nc(N)nc(N)c1C#N)c1nc2c(F)ccc(CCC(N)=O)c2c(=O)n1-c1cc(F)cc(F)c1 [Compound 39, (S)-3-(2-(1-((2,6-diamino-5-cyanopyrimidin-4-yl)amino)ethyl)-3-(3,5-difluorophenyl)-8-fluoro-4-oxo-3,4-dihydroquinazoline-5-yl)propanamide]"

row,Structure (SMILES),IC50 [nM]
1,"Cc1nc(N)c(Br)c(N[C@@H](C)c2nc3cccc(Cl)c3c(=O)n2-c2ccccc2)n1 [Compound 20, (S)-2-(1-((6-amino-5-bromo-2-methylpyrimidin-4-yl)amino)ethyl)-5-chloro-3-phenylquinazolin-4(3H)-one]",21
